{"source": "paper PMC11241255", "about": "(International Journal of Molecular Sciences, 2024)", "key": {"[1]": {"assay": "Ferric reducing antioxidant potential (FRAP) assay", "details": "1 mg/mL", "description": "FRAP assay was used to assess the […] of the extracts and phytocompounds with slight modification in a previously reported method. For the assay, the extract (1 mg/mL) was incubated with 200 μL of FRAP reagent, and the reduction of ferric tripyridyltriazine was monitored at 593 nm (Multimode reader, Synergy-H1 BioTek, Agilent, USA). Ascorbic acid (2 μg/mL) was used as a positive control. FRAP values of the extracts and phytocompounds were calculated from the standard curve of FeSO4 (15–250 μM) and expressed as μM Fe^2+/g."}, "[2]": {"target": "T1, Acetylcholinesterase (Electrophorus electricus, Type VI-S) (Electrophorus electricus, UniProt O42275)", "T1 construct": "purchased Sigma-Aldrich", "T1 sequence (O42275 24-633)": "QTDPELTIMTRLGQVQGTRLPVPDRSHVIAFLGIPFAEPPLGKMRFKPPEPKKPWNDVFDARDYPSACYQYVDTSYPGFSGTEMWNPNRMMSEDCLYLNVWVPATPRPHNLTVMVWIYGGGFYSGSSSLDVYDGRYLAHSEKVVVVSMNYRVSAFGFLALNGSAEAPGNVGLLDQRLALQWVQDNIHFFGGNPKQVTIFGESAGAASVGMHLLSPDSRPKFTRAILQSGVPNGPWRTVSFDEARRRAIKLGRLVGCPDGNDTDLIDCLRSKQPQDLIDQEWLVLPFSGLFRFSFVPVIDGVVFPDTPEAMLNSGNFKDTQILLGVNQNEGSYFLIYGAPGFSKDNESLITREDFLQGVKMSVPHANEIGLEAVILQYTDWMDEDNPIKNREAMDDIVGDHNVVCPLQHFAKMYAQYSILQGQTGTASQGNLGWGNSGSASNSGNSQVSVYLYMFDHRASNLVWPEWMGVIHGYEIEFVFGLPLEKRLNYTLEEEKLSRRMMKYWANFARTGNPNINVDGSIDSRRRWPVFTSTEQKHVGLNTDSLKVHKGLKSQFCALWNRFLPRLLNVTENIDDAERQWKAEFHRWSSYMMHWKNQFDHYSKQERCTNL", "assay": "biochemical", "details": "for Type of Inhibition of AChE: Lineweaver–Burk plot, 100 and 200 μg/mL; for Vmax of AChE in presence of inhibitor: no inhibitor 2.975; for IC50: read-out: AChE IC50 (converted)", "protocol": "The AChE activity was examined by slight modifications [23] in Ellman’s method [76]. The extracts and phytocompounds were incubated for 15 min with AChE and 10 mM ATCC at 37 °C. The reaction was stopped by DTNB (15 mM), and the absorbance was measured at 412 nm (Multi-mode plate reader, Synergy-H1 BioTek, Agilent, USA). […] The percent inhibition was calculated as:Percent Inhibition (I%) = [(Ao − Ac) − (Bi − Bc)]/(Ao − Ac) × 100 where Ao is the absorbance without inhibitor; Ac is the negative control without inhibitor; Bi is the absorbance with inhibitor; and Bc is the negative control with inhibitor. The IC50 values were calculated using GraphPad Prism 10. Lineweaver–Burk plot was used to prepare the inhibition curves (with and without extract/phytocompound) using GraphPad Prism 10. The kinetic parameters were calculated from a non-linear fit (Michaelis–Menten equation) in GraphPad Prism 10.\nStatistical analysis was established by a one-way ANOVA followed by Dunnett’s post hoc test. Data are registered as the mean ± SEM of three sets of experiments. […] The IC50 values were determined using non-linear regression. The Vmax and Km were calculated from a Michaelis–Menten plot drawn using a non-linear plot (GraphPad Prism 10). Lineweaver–Burk plots were drawn using linear regression analysis (GraphPad Prism 10). The Ki values were calculated from the formula IC50 = Ki (1 + [S]/Km)."}, "Aβ1–42 [3]": {"target": "T2, Aβ1–42 (Homo sapiens, UniProt P05067)", "T2 construct": "Aβ1–42 for MDS (GenicBio Inc., Shanghai, China); purchased GenicBio Inc", "T2 sequence (P05067 672-713)": "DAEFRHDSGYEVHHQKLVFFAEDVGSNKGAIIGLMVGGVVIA", "assay": "Anti-Aβ1–42 oligomerization, multimeric detection system (MDS)", "type": "biochemical", "details": "vs negative control (Buffer + Aβ)", "description": "The anti-Aβ1–42 oligomerization and fibrilization activity of the extracts/bioactives were measured by Multiple Detection System (MDS) and ThT assay, respectively. Briefly, the extracts and phytocompounds were incubated with Aβ1–42 at RT for different time points (0 h, 2 h, and 4 h). The samples were incubated on an anti-β-amyloid pre-coated plate for 1 h at RT. An HRP-conjugated W0–2 monoclonal antibody was added, and the plate was kept at RT for 30 min. Later, TMB was added, and the plate was incubated for 15 min at RT. The absorbance was read at 450 nm using a microplate reader (Victor3, PerkinElmer, Shelton, CT, USA)"}, "Aβ1–42 [4]": {"target": "T2, Aβ1–42", "assay": "Anti-Aβ1–42 fibrilization, ThT assay", "type": "biochemical", "details": "samples 500 μg/mL; 37 °C 24 h", "description": "The anti-Aβ1–42 fibrilization activity of the extracts/bioactives was monitored using a ThT assay. The samples were incubated in the presence/absence of Aβ1–42 at 37 °C for 24 h. The samples were incubated with 100 μM ThT at 37 °C for 15 min. The fluorescence was monitored at Ex 450 nm/Ems 490 nm (Synergy-H1 BioTek, Agilent, Santa Clara, CA, USA). For the control, phenol red (50 μM) was used. The Aβ1–42 aggregation inhibition was calculated as follows:Percent Inhibition (%) = [(1 − Fi/Fc) × 100] where Fi and Fc are the fluorescence intensity with and without the inhibitors, respectively."}, "[5]": {"tested_on": "H2O2-induced ROS production in SH-SY5Y cells", "assay": "Intracellular ROS measurement (H2DCFDA)", "type": "cell-based, Human", "details": "12 h pre-treatment, H2O2 100 µM 2 h, H2O2 alone 156.96 ± 5.07%", "description": "(§1) Human neuroblastoma SH-SY5Y cells (ATCC CRL-2266, Manassas, VA, USA) were maintained in Dulbecco’s modified Eagle’s medium (DMEM, Gibco) supplemented with 10% fetal bovine serum (FBS), 1% kanamycin, and 1% penicillin (Thermo Fisher Scientific, Waltham, MA, USA) at 37 °C with 5% CO2, and a 95% humidified atmosphere in the incubator. The experiments were executed at 80–90% cell confluency.\nThe cells (1 × 10^4 cells/well) were seeded in a 96-well sterile plate, after which they were pre-treated with the extract for 12 h. […] The fluorescence intensity (Ex 495 nm, Ems 520 nm) was measured by a microplate reader (Synergy-H1 BioTek, Agilent, USA). The ROS was calculated as a percentage of the untreated control cells (100%) in triplicate measurements."}, "SH-SY5Y cells": {"tested_on": "SH-SY5Y cells", "assay": "Mitochondrial membrane potential (ΔΨm) assay (TMRE)", "type": "cell-based, Human", "details": "12 h pre-treatment, 200 μM H2O2 2 h", "description": "as §1\nThe mitochondrial membrane potential was measured using the tetramethylrhodamine, methyl ester (TMRE) staining method. The cells (1 × 10^4 cells/well) were seeded in a 96-well sterile plate; after which, they were pre-treated with the extract for 12 h. The extracts and phytocompounds were removed, followed by a 2 h treatment with H2O2 (200 μM). A 1 μM amount of TMRE was added to the cells and incubated for 1 h at 37 °C. The fluorescence was assessed (Ex 549 nm, Ems 575 nm) using a microplate reader (Synergy-H1 BioTek, Agilent, USA). The ΔΨm was calculated as a percentage of the untreated control cells (100%) in triplicate measurements."}, "SH-SY5Y cells lysate": {"tested_on": "SH-SY5Y cells lysate", "assay": "Malondialdehyde (MDA) in cell lysate (TBA:TCA)", "type": "cell-based, Human", "details": "24 h pre-treatment, 6 h H2O2 100 μM", "description": "as §1\nThe cells (5 × 10^4 cells/well) were seeded in a 6-well sterile plate and incubated for 18–24 h. After stabilization, cells were pre-treated with the extracts and phytocompounds for 24 h before 6 h incubation with H2O2 (100 μM). The culture media was removed, and the cells were washed with cold PBS (1X). The cells were placed on ice and incubated with pre-chilled RIPA buffer for 10 min. Transfer the lysate in microfuge tubes and centrifuge (Labogene 1730R, BMS, Paju-si, Republic of Korea) for 10 min at 20,000× g, 4 °C. The supernatant was collected and stored at −80 °C.\nMDA levels were measured using TBA: TCA reagent as described previously. In the reaction, MDA reacts with two molecules of thiobarbituric acid (TBA) to give a pink pigment that absorbs at 532 nm. The standard curve of MDA (1–100 μM) was used to calculate lipid peroxidation in the lysate."}, "AChE": {"tested_on": "AChE", "details": "cited from earlier work"}, "[6]": {"tested_on": "AChE (bovine erythrocyte)", "parameters": "method as in doi:10.1021/jf960398b", "details": "cited from earlier work"}, "rodent models": {"tested_on": "rodent models", "details": "cited from earlier work"}, "[7]": {"details": "cited from earlier work"}}, "note": "“And” between values parts separate entries of the source, which are not always exact repeats. Equal values may be shown once. Read-outs that look alike come from different tables or passages of the source.", "data": [{"smiles": "C=C(C)[C@H]1CC=C(C)C(=O)C1", "note": "[carvone, D-carvone]", "values": [{"measurement": "FRAP value", "setting": "[1]", "result": "43.25 ± 2.50", "unit": "µM Fe^2+/g"}, {"measurement": "Ki", "setting": "[2]; Ki", "result": 1.8, "unit": "mM"}, {"measurement": "Ki", "setting": "[2]; Ki (inhibitor constant), AChE", "result": "1.8 mM and 1.79 mM"}, {"measurement": "Type of Inhibition of AChE", "setting": "[2]", "result": "competitive inhibition"}, {"measurement": "Type of Inhibition of AChE", "setting": "[2]; listed as Carvone", "result": "Competitive"}, {"measurement": "Vmax of AChE in presence of inhibitor", "setting": "[2]; inhibitor 100 μg/mL", "result": 2.900, "unit": "µmol/min/mg"}, {"measurement": "Vmax of AChE in presence of inhibitor", "setting": "[2]; inhibitor 200 μg/mL", "result": 3.141, "unit": "µmol/min/mg"}, {"measurement": "IC50", "setting": "[2]; mean of three experiments ± SEM", "result": 1.84, "unit": "mM"}, {"measurement": "IC50", "setting": "[2]; molar equivalent of the μg/mL value", "result": 1.83, "unit": "mM"}, {"measurement": "Aβ oligomerization reduction (relative amount of Aβ oligomers)", "setting": "Aβ1–42 [3]; 2 h incubation", "result": "statistically significant"}, {"measurement": "Aβ oligomerization reduction (relative amount of Aβ oligomers)", "setting": "Aβ1–42 [3]; 4 h incubation", "result": "statistically significant"}, {"measurement": "Aβ fibrilization inhibition (ThT)", "setting": "Aβ1–42 [4]", "result": "42.37 ± 0.76", "unit": "%"}, {"measurement": "ROS level (% of untreated cells)", "setting": "[5]; 1 µg/mL", "result": "122.82 ± 6.63", "unit": "%"}, {"measurement": "ROS level (% of untreated cells)", "setting": "[5]; 10 µg/mL", "result": "110.70 ± 4.90", "unit": "%"}, {"measurement": "ROS level (% of untreated cells)", "setting": "[5]; 30 µg/mL", "result": "107.11 ± 8.34", "unit": "%"}, {"measurement": "MMP (% ΔΨm vs untreated cells)", "setting": "SH-SY5Y cells; 0.1 µg/mL", "result": "71.61 ± 0.70", "unit": "%"}, {"measurement": "MMP (% ΔΨm vs untreated cells)", "setting": "SH-SY5Y cells; 1 µg/mL", "result": "80.80 ± 1.20", "unit": "%"}, {"measurement": "MMP (% ΔΨm vs untreated cells)", "setting": "SH-SY5Y cells; 10 µg/mL", "result": "85.18 ± 4.96", "unit": "%"}, {"measurement": "MMP (% ΔΨm vs untreated cells)", "setting": "SH-SY5Y cells; 30 µg/mL", "result": "87.19 ± 6.26", "unit": "%"}, {"measurement": "MDA level", "setting": "SH-SY5Y cells lysate; 0.1 µg/mL", "result": 1.71, "unit": "µM"}, {"measurement": "MDA level", "setting": "SH-SY5Y cells lysate; 1 and 10 µg/mL", "result": "~ 1.33 µM"}, {"measurement": "AChE inhibition", "setting": "AChE; at 1 mg/mL", "result": 23.6, "unit": "%"}, {"measurement": "AChE IC50", "setting": "AChE", "result": 835.2, "unit": "µg/mL"}, {"measurement": "IC50", "setting": "AChE", "result": 5.56, "unit": "mM"}, {"measurement": "Ki", "setting": "AChE; ref Grundy et al. 51", "result": 680, "unit": "µM"}, {"measurement": "AChE IC50", "setting": "[6]", "result": 277.9, "unit": "µg/mL"}, {"measurement": "IC50", "setting": "[6]", "result": 1.85, "unit": "mM"}, {"measurement": "type of AChE inhibition", "setting": "[6]", "result": "competitive inhibitor"}, {"measurement": "LD50", "setting": "rodent models", "result": 1640, "unit": "mg/kg"}, {"measurement": "BBB permeability", "setting": "[7]", "result": "can cross BBB"}]}]}
